Patent publication US9670227B2, “Thienopyrimidine derivatives, a process for their preparation and pharmaceutical compositions containing them” (LES LABORATOIRES SERVIER, priority 2013, dated 2017)
Read-outs that look alike come from different tables or passages of the source.

Molecular target: Mcl-1 protein (UniProtKB primary accession number: Q07820) (Homo sapiens, UniProt Q07820)
Assay: Inhibition of Mcl-1 by fluorescence polarisation, Method 1
Format: binding
Details: for IC50: read-out: IC50 (M) Mcl-1 FP; for percentage fluorescence polarisation inhibition, Mcl-1 FP: partial inhibitors, @ 10 uM test compound
Description: The relative binding potency of each compound was determined via Fluorescence Polarisation (FP).
An 11 point serial dilution of each compound was prepared in DMSO and 2 μl transferred into flat bottomed, low binding, 384-well plate (final DMSO concentration 5%). 38 μl of buffer (10 mM 4-(2-hydroxyethyl)-1-piperazineethanesulfonic acid [HEPES], 150 mM NaCl, 0.05% Tween 20, pH 7.4), containing the Fluorescein labelled ligand (final concentration 1 nM) and Mcl-1 protein (final concentration 5 nM) was then added.

[1] = fluorescence polarisation, Method 1, or Method 2
[2] = fluorescence polarisation test, Method 2 values are underlined in the patent (underlining not visible here)

Mcl-1 protein, sequence (Q07820 whole entry): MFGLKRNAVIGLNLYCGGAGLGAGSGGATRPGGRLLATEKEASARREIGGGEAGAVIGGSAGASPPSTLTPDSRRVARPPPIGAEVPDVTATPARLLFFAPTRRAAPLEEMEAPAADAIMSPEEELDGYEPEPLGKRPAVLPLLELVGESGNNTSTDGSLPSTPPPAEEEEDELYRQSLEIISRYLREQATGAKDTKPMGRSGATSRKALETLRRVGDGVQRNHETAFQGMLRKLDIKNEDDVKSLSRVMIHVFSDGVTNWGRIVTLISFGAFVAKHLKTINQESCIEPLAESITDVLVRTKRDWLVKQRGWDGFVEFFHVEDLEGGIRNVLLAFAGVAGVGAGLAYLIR

IC50 [1] [M] | Compound | also measured
5.1e-07 | CCc1sc2ncnc(O[C@H](Cc3ccccc3OC)C(=O)O)c2c1-c1ccc(O)c(Cl)c1C (single isomer, unassigned) [Example 682] | –
4.95e-09 | COc1ccccc1-c1nccc(COc2ccccc2CC(Oc2ncnc3sc(C#CCN4CCOCC4)c(-c4ccc(OCCN5CCN(C)CC5)c(Cl)c4C)c23)C(=O)O)n1 [Example 786, (2R)-2-[((5Sa)-5-{3-chloro-2-methyl-4-[2-(4-methylpiperazin-1-yl)ethoxy]phenyl}-6-[3-(morpholin-4-yl)prop-1-yn-1-yl]thieno[2,3-d]pyrimidin-4-yl)oxy]-3-(2-{[2-(2-methoxyphenyl)pyrimidin-4-yl]methoxy}phenyl)propanoic acid] | –
3.53e-07 | COc1ccccc1-c1nccc(COc2ccccc2CC(Oc2ncnc3sc(-c4ccc(Oc5ccccc5)cc4)c(-c4ccc(OCCN5CCN(C)CC5)c(Cl)c4C)c23)C(=O)O)n1 (single isomer, unassigned) [Example 758] | –
1.21e-08 | Cc1c(-c2c(-c3ccc(F)cc3)sc3ncnc(OC(Cc4ccccc4OCc4ccnc(-c5ccccc5F)n4)C(=O)O)c23)ccc(OCCN(C)C2CC2)c1Cl [Example 748, (2R)-2-{[(5Sa)-5-(3-chloro-4-{2-[cyclopropyl(methyl)amino]ethoxy}-2-methylphenyl)-6-(4-fluorophenyl)thieno[2,3-d]pyrimidin-4-yl]oxy}-3-(2-{[2-(2-fluorophenyl)pyrimidin-4-yl]methoxy}phenyl)propanoic acid] | –
4.8e-08 | COc1ccccc1CC(Oc1ncnc2sc(-c3cccc(Cl)c3)c(-c3ccc(OCCN4CCN(C)CC4)c(Cl)c3C)c12)C(=O)O [Example 550, (2R)-2-{[(5Sa)-5-{3-chloro-2-methyl-4-[2-(4-methylpiperazin-1-yl)ethoxy]phenyl}-6-(3-chlorophenyl)thieno[2,3-d]pyrimidin-4-yl]oxy}-3-(2-methoxyphenyl)propanoic acid] | –

Further lines, the compound ahead of its results:

Compound | IC50 [1] [M] | also measured
CCc1sc2ncnc(OC(Cc3ccccc3)C(=O)O)c2c1-c1ccc(OCCO)c(Cl)c1C [Example 423, (2R)-2-({(5Sa)-5-[3-chloro-4-(2-hydroxyethoxy)-2-methylphenyl]-6-ethylthieno[2,3-d]pyrimidin-4-yl}oxy)-3-phenylpropanoic acid] | 5.3e-08 | –
CCc1sc2ncnc(OC(Cc3ccccc3)C(=O)O)c2c1-c1cc(Cl)c(O)c(Cl)c1C [Example 428, (2R)-2-{[(5Sa)-5-(3,5-dichloro-4-hydroxy-2-methylphenyl)-6-ethylthieno[2,3-d]pyrimidin-4-yl]oxy}-3-phenylpropanoic acid] | 7.5e-09 | –
CCN(C)CCOc1ccc(-c2c(-c3ccc(F)cc3)sc3ncnc(OC(Cc4ccccc4OCc4ccnc(-c5ccccc5F)n4)C(=O)OCCOC)c23)c(C)c1Cl [Example 803, 2-methoxyethyl (2R)-2-{[(5Sa)-5-(3-chloro-4-{2-[ethyl(methyl)amino]ethoxy}-2-methylphenyl)-6-(4-fluorophenyl)thieno[2,3-d]pyrimidin-4-yl]oxy}-3-(2-{[2-(2-fluorophenyl)pyrimidin-4-yl]methoxy}phenyl)propanoate] | – | IC50 (fluorescence polarisation test, Method 1, or Method 2 where the value is underlined (underlining not visible)): 3.14e-06 M
Cc1c(-c2c(-c3ccco3)sc3ncnc(OC(Cc4ccccc4CN)C(=O)O)c23)ccc(OCCN2CCN(C)CC2)c1Cl [Example 355, (2R)-3-[2-(aminomethyl)phenyl]-2-{[(5Sa)-5-{3-chloro-2-methyl-4-[2-(4-methylpiperazin-1-yl)ethoxy]phenyl}-6-(furan-2-yl)thieno[2,3-d]pyrimidin-4-yl]oxy}propanoic acid] | – | IC50 [2]: 3e-08 M
CCc1sc2ncnc(OC(Cc3ccccc3)C(=O)O)c2c1-c1ccc(OCCN(C)C)cc1C [Example 410, (2R)-2-[((5Ra)-5-{4-[2-(dimethylamino)ethoxy]-2-methylphenyl}-6-ethylthieno[2,3-d]pyrimidin-4-yl)oxy]-3-phenylpropanoic acid] | 2.2e-06 | –
COc1ccccc1C[C@@H](Oc1ncnc2sc(-c3ccc(F)cc3)c(-c3ccc(OCCN4CCN(C)CC4)c(Cl)c3C)c12)C(=O)Oc1ccc2c(c1)CCC2 [Example 640, 2,3-dihydro-1H-inden-5-yl (2R)-2-{[(5Sa)-5-{3-chloro-2-methyl-4-[2-(4-methylpiperazin-1-yl)ethoxy]phenyl}-6-(4-fluorophenyl)thieno[2,3-d]pyrimidin-4-yl]oxy}-3-(2-methoxyphenyl)propanoate] | – | percentage fluorescence polarisation inhibition, Mcl-1 FP: 42.4% @ 10 uM
CC(=O)c1sc2ncnc(OC(Cc3ccccc3)C(=O)O)c2c1-c1ccc(OCCN2CCN(C)CC2)c(Cl)c1C [Example 522, (2R)-2-[(6-acetyl-(5Sa)-5-{3-chloro-2-methyl-4-[2-(4-methylpiperazin-1-yl)ethoxy]phenyl}thieno[2,3-d]pyrimidin-4-yl)oxy]-3-phenylpropanoic acid] | 7.5e-08 | –
CCc1sc2ncnc(OC(Cc3ccccc3)C(=O)O)c2c1-c1cc(Cl)c(O)c(Cl)c1C [Example 429, (2R)-2-{[(5Ra)-5-(3,5-dichloro-4-hydroxy-2-methylphenyl)-6-ethylthieno[2,3-d]pyrimidin-4-yl]oxy}-3-phenylpropanoic acid] | 5.3e-08 | –
CCc1sc2ncnc(OC(Cc3ccccc3)C(=O)O)c2c1-c1cc2c(c(Cl)c1C)OCC(=O)N2 [Example 441, (2R)-2-{[(5Sa)-5-(8-chloro-7-methyl-3-oxo-3,4-dihydro-2H-1,4-benzoxazin-6-yl)-6-ethylthieno[2,3-d]pyrimidin-4-yl]oxy}-3-phenylpropanoic acid] | 2.7e-08 | –
Cc1c(-c2c(-c3ccco3)sc3ncnc(OC(Cc4ccccc4OC4CCCc5cccnc54)C(=O)O)c23)ccc(OCCN2CCN(C)CC2)c1Cl [Example 213, (2R)-2-{[(5Sa)-5-{3-chloro-2-methyl-4-[2-(4-methylpiperazin-1-yl)ethoxy]phenyl}-6-(furan-2-yl)thieno[2,3-d]pyrimidin-4-yl]oxy}-3-[2-(5,6,7,8-tetrahydroquinolin-8-yloxy)phenyl]propanoic acid] | – | IC50 [2]: 1.8e-08 M
CCc1sc2ncnc(OC(Cc3ccccc3)C(=O)O)c2c1-c1cc2nc(C)oc2c(Cl)c1C [Example 444, (2R)-2-{[(5Sa)-5-(7-chloro-2,6-dimethyl-1,3-benzoxazol-5-yl)-6-ethylthieno[2,3-d]pyrimidin-4-yl]oxy}-3-phenylpropanoic acid] | 1.2e-08 | –
COc1ccccc1CC(Oc1ncnc2sc(C(=O)N(C)C)c(-c3ccc(OCCN4CCN(C)CC4)c(Cl)c3C)c12)C(=O)O [Example 575, (2R)-2-{[(5Sa)-5-{3-chloro-2-methyl-4-[2-(4-methylpiperazin-1-yl)ethoxy]phenyl}-6-(dimethylcarbamoyl)thieno[2,3-d]pyrimidin-4-yl]oxy}-3-(2-methoxyphenyl)propanoic acid] | – | percentage fluorescence polarisation inhibition, Mcl-1 FP (10 µM): 46.8% @ 10 uM
Cc1c(-c2c(-c3ccc(F)o3)sc3ncnc(OC(Cc4ccccc4OCc4ccccn4)C(=O)O)c23)ccc(OCCN2CCN(C)CC2)c1Cl (single isomer, unassigned) [Example 166] | – | IC50 [2]: 6e-09 M
CCc1sc2ncnc(OC(Cc3ccccc3)C(=O)O)c2c1-c1cc(Cl)c(O)cc1C [Example 439, (2R)-2-{[(5Ra)-5-(5-chloro-4-hydroxy-2-methylphenyl)-6-ethylthieno[2,3-d]pyrimidin-4-yl]oxy}-3-phenylpropanoic acid] | 2.5e-07 | –
